In patent publication US9340544B2, “Purinyl derivatives and their use as potassium channel modulators” (NeuroSearch A/S, priority 2007, dated 2016):

Biological target: T1, hSK3 channels (Homo sapiens, UniProt Q9UGI6)
T1 construct: expressed in transfected cells; host or cells: HEK293
Assay: Whole-cell patch-clamp recording of ionic current through SK channels (subtype 3) in HEK293 cells expressing hSK3
Assay type: cell-based
Settings: SK3 activation
Experimental: The ionic current through small-conductance Ca^2+-activated K^+ channels (SK channels, subtype 3) is recorded using the whole-cell configuration of the patch-clamp technique in a classic patch-clamp set-up using HEK293 tissue culture cells expressing hSK3 channels as described in e.g. WO 2006/100212.
The SC100 value determined is defined as the Stimulating Concentration required for increasing the baseline current by 100%.

SMILES: COCCn1cnc2c(Nc3ccccc3)nc(-n3nc(C)cc3C)nc21 [Compound 15.1, [2-(3,5-Dimethyl-pyrazol-1-yl)-9-(2-methoxy-ethyl)-9H-purin-6-yl-]phenyl-amine]
- The SC100 (Stimulating Concentration required for increasing the baseline current by 100%): 0.4 µM

SMILES: Cc1cc(C)n(-c2nc(NCCc3ccccc3)c3ncn(C)c3n2)n1 [Compound 9.11, [2-(3,5-Dimethyl-pyrazol-1-yl)-9-methyl-9H-purin-6-yl]-phenethyl-amine]
- The SC100 (Stimulating Concentration required for increasing the baseline current by 100%): 0.2 µM

SMILES: Cc1cc(C)n(-c2nc(Nc3ccc(F)cc3)c3ncn(C)c3n2)n1 [Compound 9.1, [2-(3,5-Dimethyl-pyrazol-1-yl)-9-methyl-9H-purin-6-yl]-(4-fluoro-phenyl)-amine]
- The SC100 (Stimulating Concentration required for increasing the baseline current by 100%): 0.05 µM

SMILES: Cc1cc(C)n(-c2nc(Nc3ccccc3)c3nc[nH]c3n2)n1 [Compound 14.1, [2-(3,5-Dimethyl-pyrazol-1-yl)-9H-purin-6-yl]-phenyl-amine]
- The SC100 (Stimulating Concentration required for increasing the baseline current by 100%): 0.2 µM

SMILES: Cc1cc(-c2ccco2)nn1-c1nc(Nc2ccc(Cl)cc2)c2ncn(C)c2n1 [Compound 9.18, (4-Chloro-phenyl)-[2-(3-furan-2-yl-5-methyl-pyrazol-1-yl)-9-methyl-9H-purin-6-yl]-amine]
- The SC100 (Stimulating Concentration required for increasing the baseline current by 100%): 1.0 µM

SMILES: Cc1cc(C)n(-c2nc(Nc3ccc([N+](=O)[O-])cc3)c3ncn(C)c3n2)n1 [Compound 9.8, [2-(3,5-Dimethyl-pyrazol-1-yl)-9-methyl-9H-purin-6-yl]-(4-nitro-phenyl)-amine]
- The SC100 (Stimulating Concentration required for increasing the baseline current by 100%): 0.2 µM

SMILES: Cc1cc(CO)n(-c2nc(Nc3ccc(Cl)cc3)c3ncn(C)c3n2)n1 [Compound 13.1, {2-[6-(4-Chloro-phenylamino)-9-methyl-9H-purin-2-yl]-5-methyl-2H-pyrazol-3-yl}-methanol]
- The SC100 (Stimulating Concentration required for increasing the baseline current by 100%): 0.2 µM

SMILES: Cc1nn(-c2nc(Nc3ccc(Cl)cc3)c3ncn(C)c3n2)c(C)c1Cl [Compound 9.16, [2-(4-Chloro-3,5-dimethyl-pyrazol-1-yl)-9-methyl-9H-purin-6-yl]-(4-chloro-phenyl)-amine]
- The SC100 (Stimulating Concentration required for increasing the baseline current by 100%): 0.02 µM

SMILES: CCc1cc(CC)n(-c2nc(Nc3ccc(Cl)cc3)c3ncn(C)c3n2)n1 [Compound 9.14, (4-Chloro-phenyl)-[2-(3,5-diethyl-pyrazol-1-yl)-9-methyl-9H-purin-6-yl]-amine]
- The SC100 (Stimulating Concentration required for increasing the baseline current by 100%): 0.6 µM

SMILES: Cc1cc(C)n(-c2nc(Nc3ccc(Cl)nc3)c3ncn(C)c3n2)n1 [Compound 9.7, (6-Chloro-pyridin-3-yl)-[2-(3,5-dimethyl-pyrazol-1-yl)-9-methyl-9H-purin-6-yl]-amine]
- The SC100 (Stimulating Concentration required for increasing the baseline current by 100%): 0.4 µM

SMILES: CCn1cnc2c(Nc3ccc(Cl)cc3)nc(-n3nc(C)cc3C)nc21 [Compound 6.4, (4-Chloro-phenyl)-[2-(3,5-dimethyl-pyrazol-1-yl)-9-ethyl-9H-purin-6-yl]-amine]
- The SC100 (Stimulating Concentration required for increasing the baseline current by 100%): 0.01 µM
